A word on the pIC50: it is −log10 of the IC50, conventionally taken in molar units.

For the assay, the system named is PMA-differentiated THP-1 cells. Description: IL-1β production in PMA-differentiated THP-1 cells stimulated with gramicidin (hTHP-1 assay containing 2% fetal bovine serum; Procedures 1 and 2). The class given is cell-based, human. As to conditions: 2% fetal bovine serum. In outline:
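PMA-primed (20 ng/ml, 16-18 h) THP-1 cells in RPMI with 2% FBS, 50,000 cells/well, were preincubated 1 h with compound (0.0017-100 μM final, 0.37% DMSO), then stimulated 2 h with 5 μM gramicidin. Supernatant IL-1β measured by HTRF.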

[1] abbreviates: Table B2, class symbols, read-out: hTHP-1 IC50.
Where [2] appears, read: Homo sapiens, THP-1, Table B3, hTHP-1 assay, class symbols, read-out: IC50.
Setting [3] is: Homo sapiens, THP-1, Table B1, class symbols, read-out: Average IC50 of compounds in hTHP-1 assay: hTHP-1 IC50.
Where [4] appears, read: Table B4, class symbols, read-out: hTHP-1 IC50.
Setting [5] is: Homo sapiens, THP-1, Table B2, class symbols, read-out: hTHP-1 IC50.
The mark [6] stands for this setting: Homo sapiens, THP-1, Table B1, numeric bounds, read-out: Average IC50 of compounds in hTHP-1 assay: hTHP-1 IC50.
[7] abbreviates: Table B1, class symbols, read-out: Average IC50 of compounds in hTHP-1 assay: hTHP-1 IC50.

pIC50: −log10 of the molar value. Like-named read-outs stand apart in the source and are kept apart here.

`CC1(C)CCc2c1nc1c(c2NC(=O)N=S(N)(=O)c2cnc(C(C)(O)CO)s2)CCC1` (single isomer, unassigned) [Compound 201b, (S, R) or (R, R) or (R, S) or (S, S)-2-(1,2-Dihydroxypropan-2-yl)-N′-((3,3-dimethyl-1,2,3,5,6,7-hexahydrodicyclopenta [b,e]pyridin-8-yl)carbamoyl) thiazole-5-sulfonimidamide]: the pIC50 under setting [1] was 6.70 to 7.40. Consider `CC(C)c1nc2c(cc1NC(=O)N=S(N)(=O)c1cnc(C(C)(C)O)s1)CCC2` (single isomer, unassigned) [Example 701, (R) or (S)-2-(2-Hydroxypropan-2-yl)-N′-((2-isopropyl-6,7-dihydro-5H-cyclopenta[b]pyridin-3-yl)carbamoyl)thiazole-5-sulfonimidamide], for which the pIC50 under setting [2] was 4.52 to 5.30. Same read-out and setting: next, `CC1(C)CCc2c1nc1c(c2NC(=O)N=[S@](N)(=O)c2cc([C@](C)(O)CO)cs2)CCC1` [Example 652, (S)-4-((S)-1,2-dihydroxypropan-2-yl)-N′-((3,3-dimethyl-1,2,3,5,6,7-hexahydrodicyclopenta[b,e]pyridin-8-yl)carbamoyl) thiophene-2-sulfonimidamide]: 4.52 to 5.30. With `Cc1nc2c(c(NC(=O)N=S(N)(=O)c3cnc(C(C)(C)O)s3)c1C(C)C)CCC2` (single isomer, unassigned) [Compound 116b, (R) or (S)-2-(2-hydroxypropan-2-yl)-N′-((3-isopropyl-2-methyl-6,7-dihydro-5H-cyclopenta[b]pyridin-4-yl)carbamoyl)thiazole-5-sulfonimidamide], under setting [3], the pIC50 is 4.52 to 5.30. Consider `NS(=O)(=NC(=O)Nc1c2c(nc(C(F)(F)F)c1C1CC1)CCC2)c1nn(C(F)F)cc1F` (single isomer, unassigned) [Example 776, (S) or (R)-N′-((3-cyclopropyl-2-(trifluoromethyl)-6,7-dihydro-5H-cyclopenta[b]pyridin-4-yl)carbamoyl)-1-(difluoromethyl)-4-fluoro-1H-pyrazole-3-sulfonimidamide], for which the pIC50 under setting [4] was 4.52 to 5.30.

For the compound `CC(C)(O)c1ccc(S(N)(=O)=NC(=O)Nc2c3c(nc4c2CCC4(C)C)CCC3)cn1` (single isomer, unassigned) [Compound 673a, (R) or (S)-N′-((3,3-dimethyl-1,2,3,5,6,7-hexahydrodicyclopenta [b,e]pyridin-8-yl)carbamoyl)-6-(2-hydroxypropan-2-yl)pyridine-3-sulfonimidamide], the pIC50 under setting [5] is 5.30 to 6.00. Turning to `CC(C)(O)c1nc(S(N)(=O)=NC(=O)Nc2c3c(nc4c2CCC4)CCC3)cs1` (centres unmarked) [Compound 154], the pIC50 under setting [3] is 6.00 to 6.70. `Cc1c(C(F)(F)F)nc2c(c1NC(=O)N=[S@](N)(=O)c1cnc(C(C)(C)O)s1)CC[C@@H]2C` [Compound 608a]: the pIC50 under setting [5] is 6.00 to 6.70. For `CC(C)(O)c1ccc(S(N)(=O)=NC(=O)Nc2c3c(nc4c2CCC4)CCC3)s1` (single isomer, unassigned) [Compound 149b, (S) or (R)-N′-((1,2,3,5,6,7-hexahydrodicyclo-penta[b,e]pyridin-8-yl)carbamoyl)-5-(2-hydroxypropan-2-yl)thiophene-2-sulfonimidamide], the pIC50 under setting [6] is less than 4.52.

Consider `Cc1c(C(F)(F)F)nc2c(c1NC(=O)N=S(N)(=O)c1ccn(C)n1)CCC2` (centres unmarked) [Example 633, 1-Methyl-N′-((3-methyl-2-(trifluoromethyl)-6,7-dihydro-5H-cyclopenta[b]pyridin-4-yl)carbamoyl)-1H-pyrazole-3-sulfonimidamide], for which the negative-log IC50 (pIC50) under setting [2] is 4.52 to 5.30.

Consider `CNS(=O)(=NC(=O)Nc1c2c(nc3c1CCC3)CCC2)c1ccc(CN(C)C)cc1` (single isomer, unassigned) [Compound 120a, (R) or (S)-4-((dimethylamino)methyl)-N′-((1,2,3,5,6,7-hexahydro-dicyclopenta[b,e]pyridin-8-yl)carbamoyl)-N-methylbenzene-sulfonimidamide], for which the pIC50 under setting [6] was less than 4.52.

On to `CCn1cc(F)c(S(N)(=O)=NC(=O)Nc2c(-c3ccccc3)cnc3c2CCC3)n1` (single isomer, unassigned) [Example 793, (R) or (S)-1-ethyl-4-fluoro-N′-((3-phenyl-6,7-dihydro-5H-cyclopenta[b]pyridin-4-yl)carbamoyl)-1H-pyrazole-3-sulfonimidamide], for which the pIC50 under setting [4] was 6.00 to 6.70. Take `Cc1c(C2CC2)nc2c(c1NC(=O)N=S(N)(=O)c1cc(C(C)(C)O)cs1)CCC2C` (single isomer, unassigned) [Compound 656d, (R, S) or (R, R) or (S, R) or (S, S)-N′-((2-Cyclopropyl-3,7-dimethyl-6,7-dihydro-5H-cyclopenta[b]pyridin-4-yl)carbamoyl)-4-(2-hydroxypropan-2-yl)thiophene-2-sulfonimidamide]: under setting [1], the pIC50 was 5.30 to 6.00.

As for `Cc1c(C2CC2)nc2c(c1NC(=O)N=S(N)(=O)c1cc(C(C)(C)O)cs1)CCC2C` (single isomer, unassigned) [Compound 656b, (S, S) or (S, R) or (R, S) or (R, R)-N′-((2-Cyclopropyl-3,7-dimethyl-6,7-dihydro-5H-cyclopenta[b]pyridin-4-yl)carbamoyl)-4-(2-hydroxypropan-2-yl)thiophene-2-sulfonimidamide], the pIC50 under setting [1] is 4.52 to 5.30.

On to `CCn1nc(S(N)(=O)=NC(=O)Nc2c3c(nc4c2CCC4(C)C)CCC3)cc1CO` (single isomer, unassigned) [Example 726, (R) or (S)-N′-((3,3-dimethyl-1,2,3,5,6,7-hexahydrodicyclopenta[b,e]pyridin-8-yl)carbamoyl)-1-ethyl-5-(hydroxymethyl)-1H-pyrazole-3-sulfonimidamide], for which, under setting [2], the negative logarithm of the IC50 (pIC50) is 6.00 to 6.70.

Take `NS(=O)(=NC(=O)Nc1c2c(nc3c1CCC31CC1)CCC2)c1nn(C(F)F)cc1F` (centres unmarked) [Compound 719]: the pIC50 under setting [5] is 6.00 to 6.70.

As to `CC1CCc2c1nc1c(c2NC(=O)N=S(N)(=O)c2cc(C(C)(C)O)cs2)CCC1` (single isomer, unassigned) [Compound 141a, (S,R/S) or (R,R/S)-4-(2-hydroxypropan-2-yl)-N′-((3-methyl-1,2,3,5,6,7-hexahydro-dicyclopenta[b,e]pyridin-8-yl)carbamoyl)thiophene-2-sulfonimidamide], the pIC50 under setting [7] was 5.30 to 6.00.

Take `CC(C)n1ccc(S(N)(=O)=NC(=O)Nc2c3c(nc4c2CCC4(C)C)CCC3)n1` (single isomer, unassigned) [Compound 126a, (R) or (S)-N′-((3,3-dimethyl-1,2,3,5,6,7-hexahydro-dicyclopenta[b,e]pyridin-8-yl)carbamoyl)-1-isopropyl-1H-pyrazole-3-sulfonimidamide]: the negative-log IC50 (pIC50) under setting [7] was 6.70 to 7.40. `Cc1c(C(F)(F)F)nc2c(c1NC(=O)N=S(N)(=O)c1nn(C(C)C)cc1F)CCC2` (centres unmarked) [Example 734, 4-Fluoro-1-isopropyl-N′-((3-methyl-2-(trifluoromethyl)-6,7-dihydro-5H-cyclopenta[b]pyridin-4-yl)carbamoyl)-1H-pyrazole-3-sulfonimidamide]: the pIC50 (Homo sapiens, THP-1, Table B4, class symbols, read-out: hTHP-1 IC50) was 6.00 to 6.70. For `Cc1nc2c(c(NC(=O)N=S(N)(=O)c3nn(C(F)F)cc3F)c1-c1ccccc1)CCC2` (single isomer, unassigned) [Example 727, (R) or (S)-1-(difluoromethyl)-4-fluoro-N′-((2-methyl-3-phenyl-6,7-dihydro-5H-cyclopenta[b]pyridin-4-yl)carbamoyl)-1H-pyrazole-3-sulfonimidamide], the pIC50 (Table B3, hTHP-1 assay, class symbols, read-out: IC50) is 6.70 to 7.40.

The values are drawn from patent US20230031406A1, “COMPOUNDS AND COMPOSITIONS FOR TREATING CONDITIONS ASSOCIATED WITH NLRP ACTIVITY” (Novartis AG, priority 2018, published 2023).
